{"source": "patent US12460177B2", "about": "“Composition for promoting efficiency of somatic cell replication” (SEOUL NATIONAL UNIVERSITY HOSPITAL, priority 2018, dated 2025)", "test_system": "H3K9me3 / H3K4me3 binding at the Apobec1 (demethylase) promoter region", "assay": "ChIP-PCR with Apobec1 promoter primers in human mesenchymal stem cells treated with endothelin", "format": "cell-based", "settings": "endothelin treatment, FIG. 1", "excerpt": "Human mesenchymal stem cells were transfected with siRNA of SMARCA4 or SMARCD2, treated with endothelin, and then harvested. In the present invention, human mesenchymal stem cells (Poietics™ Human Mesenchymal Stem Cells, Lonza) were used. The cells were selected by conducting a human mesenchymal stem cell identification experiment, and identified and classified as human bone marrow-derived stem cells after the expression of a positive cell marker (CD29, CD90, CD44, CD73, CD105 or CD166) for mesenchymal stem cells, the negative identification by a cell marker (CD34, CD45, CD14, HLA-DR or CD19), and the confirmation of multipotency of mesenchymal stem cells.\nGenomic DNA was extracted from the recovered cells, and reacted with a H3K9me3 or H3K4me3 antibody [anti-H3K9me3 (Abcam: cat. no. ab8898), anti-H3K4me3 (Abcam; cat. no. ab8580) or normal rabbit IgG (Cell Signaling Technology: cat. no. #2729): negative control], followed by ChIP-PCR performed using Apobec1 promoter primers that are able to confirm the binding of H3K9me3 or H3K4me3. […]\nSubsequently, the resulting product was heated at 65° C. for 4 hours to remove a crosslink. DNA fragments were collected using a PCR purification kit (Qiagen) and analyzed using qPCR and semi-quantitative PCR, and the results are shown in FIG. 1.", "data": [{"substance": "endothelin (HLDIIW; listed as Mus musculus) [peptide generated in vascular endothelial cells, 21 amino acid residues, two S—S bonds, known as a vasoconstrictive peptide]", "values": [{"measurement": "binding of H3K4me3 (promoting gene expression) at the demethylase promoter region", "setting": "ChIP-PCR (anti-H3K4me3)", "result": "increases"}, {"measurement": "H3K9me3 (suppressing gene expression) at the demethylase promoter region", "setting": "ChIP-PCR (anti-H3K9me3)", "result": "detached"}]}]}
